# Data reported in US20150212068A1, “Cholyl-L-Lysyl-Fluorescein Assay” (Novassay SA, priority 2012, published 2015).
# “Also recorded” adds a separate entry of the source.
# Legend:
# serum proteins = assay: Recovery of spiked CLF from individual human serum samples, classical and labelled-antibody competitive immunoassays; assay type: in vitro ADME; settings: inferred from low recovery of CLF spiked into serum
# Protocol: Streptavidin-coated microtitre plate Biotinylated anti-fluorescein antibody, “BJ/C” (NovAssay, using HyTest mouse monoclonal anti-fluorescein, cat code 5F3 2A3 (conjugate ref. DV038/182-1) or AbD Serotec sheep polyclonal anti-fluorescein, cat code 640001 (ref. DV038/182-2) is bound to the plate CLF from the sample competes with CLF-horseradish peroxidase, “CJ/C” (CLF-HRP; NovAssay, DV047/14) for the biotinylated anti-fluorescein antibody Bound CLF-HRP is measured colorimetrically using tetramethylbenzidine (TMB) substrate.
# • Streptavidin-coated microtitre plate • Biotin-fluorescein (Sigma B9431) is bound to the plate • CLF from the sample competes with bound biotin-fluorescein for an anti-fluorescein-HRP conjugate (NovAssay, using HyTest mouse monoclonal anti-fluorescein, cat code 5F3 2A3 (conjugate ref. DV047/17-3) • Bound anti-fluorescein-HRP is measured colorimetrically using tetramethylbenzidine (TMB) substrate. […]
# Given the success of achieving workable standard curves in both formats, 100 ng/ml of CLF was spiked into a number of individual human serum samples, and the percentage CLF recovery calculated (e.g. 50 ng/ml=50%). […]
# [1] = Stability of buffer-based CLF standards after 4 weeks storage at 2-8° C., CLF ELISA; assay type: physicochemical; settings: for mean OD, fresh: freshly made; for decrease in immunoreactivity: buffer-based CLF standards
# Protocol: These conditions were used for all assays described in Phase 2a (above) and Phase 2b (below). See Appendix B and C for buffer and conjugate formulations respectively: • Add 25 μl/well of sample or standard (0-1000 ng/ml CLF in Buffer #24) to the wells of a streptavidin-coated microtitre plate (NovAssay, F2SAC). • Add 100 μl/well of fluorescein-biotin (Sigma B9431) at 20 ng/ml in Buffer #24+0.2% w/v ANS (Sigma 10417). • Add 100 μl/well of anti-fluorescein HRP (NovAssay, DV047/17-3) at 100 ng/ml in Buffer #24. • Incubate the plate for 30 minutes at room temperature. • Wash the plate 3 times with 800 μl/well Buffer #29 and tap the plate dry. • Add 100 μl/well of SureBlue Reserve TMB Substrate (KPL) and incubate the plate for 10 minutes at room temperature. • Stop the substrate reaction by adding 100 μl/well of 1M HCl and read the absorbance at 450 nm wavelength (ThermoFisher Scientific, Multiskan FC).
# Standards were prepared by spiking CLF into buffer (6 standards having a concentration span of 0 to 1000 ng/ml). The standards were stored at 2-8° C. for 4 weeks. They were then taken out of the fridge and assayed alongside standards that were freshly made.
# [2] = Quantification of CLF in 5 human plasma samples by HPLC-MS/MS with calibration curves from SS CLF-MetOH and SS CLF-EtOH; assay type: physicochemical
# Protocol: Two working solutions of CLF were prepared. […] Five human plasma samples, spiked with CLF from both working solutions, were prepared for HPLC-MS/MS analysis. These samples (named S1, S2, S3, S4 and S5) were thawed at room temperature, extemporaneously, and 100 μl of each were transferred in appropriate tubes. The HPLC-MS/MS analysis was conducted with two calibration curves, constituted with 7 single points (non zero). The first one was prepared by serial dilutions in methanol of the working solution named SS CLF-MetOH. The second one was prepared by serial dilutions in methanol of the working solution named SS CLF-EtOH. Both working solutions were centrifuged 5 min at 3000 g before dilutions. These dilutions of CLF in methanol allowed obtaining the 10× standard solutions used for standard sample preparation. Then, calibration curves were prepared by adding 10 μl of the concentrated standard solutions to 90 μl of free-drug human plasma. The final concentrations of calibrators were of 1000, 500, 250, 100, 25, 5 and 1 ng/ml. […] The contents of CLF were determined in 5 human plasma samples provided, according to the standard curve generated from both separate working solutions. […] The content of CLF was semi-quantified using data previously obtained. The UV response at 254 nm was used for semi-quantification. […] The differences between both quantifications were also evaluated as follows: […]
# [3] = Fresh std 16 ng/ml, 4 weeks at 2-8° C.
# [4] = Fresh std 31 ng/ml, 4 weeks at 2-8° C.
# [5] = Fresh std 63 ng/ml, 4 weeks at 2-8° C.
# [6] = Fresh std 125 ng/ml, 4 weeks at 2-8° C.
# [7] = Fresh std 250 ng/ml, 4 weeks at 2-8° C.
# [8] = Fresh std 500 ng/ml, 4 weeks at 2-8° C.
# [9] = Fresh std 1000 ng/ml, 4 weeks at 2-8° C.
smiles,measurement,setting,value
"CC(CCC(=O)NC(CCCCNC(=S)Nc1ccc(-c2c3ccc(=O)cc-3oc3cc(O)ccc23)c(C(=O)O)c1)C(=O)O)C1CCC2C3C(O)CC4CC(O)CCC4(C)C3CC(O)C12C [CLF, Cholyl-L-Lysyl-Fluorescein]",binding of CLF to serum proteins,serum proteins,binds to serum proteins; also recorded: significant protein binding
same,4-week stds,[1]; [3],5 ng/mL
same,% change in CLF immunoreactivity,[1]; [3],−67%
same,4-week stds,[1]; [4],17 ng/mL
same,% change in CLF immunoreactivity,[1]; [4],−44%
same,4-week stds,[1]; [5],38 ng/mL
same,% change in CLF immunoreactivity,[1]; [5],−40%
same,4-week stds,[1]; [6],72 ng/mL
same,% change in CLF immunoreactivity,[1]; [6],−42%
same,4-week stds,[1]; [7],162 ng/mL
same,% change in CLF immunoreactivity,[1]; [7],−35%
same,4-week stds,[1]; [8],359 ng/mL
same,% change in CLF immunoreactivity,[1]; [8],−28%
same,4-week stds,[1]; [9],685 ng/mL
same,% change in CLF immunoreactivity,[1]; [9],−31%
same,"mean OD, 4-week old stds","[1]; buffer standard 16 ng/ml, 4 weeks at 2-8° C.",3.219
same,"mean OD, fresh",[1]; buffer standard 16 ng/ml,2.745
same,"mean OD, 4-week old stds","[1]; buffer standard 31 ng/ml, 4 weeks at 2-8° C.",2.699
same,"mean OD, fresh",[1]; buffer standard 31 ng/ml,2.265
same,"mean OD, 4-week old stds","[1]; buffer standard 63 ng/ml, 4 weeks at 2-8° C.",2.133
same,"mean OD, fresh",[1]; buffer standard 63 ng/ml,1.653
same,"mean OD, 4-week old stds","[1]; buffer standard 125 ng/ml, 4 weeks at 2-8° C.",1.577
same,"mean OD, fresh",[1]; buffer standard 125 ng/ml,0.884
same,"mean OD, 4-week old stds","[1]; buffer standard 250 ng/ml, 4 weeks at 2-8° C.",0.953
same,"mean OD, fresh",[1]; buffer standard 250 ng/ml,0.661
same,"mean OD, 4-week old stds","[1]; buffer standard 500 ng/ml, 4 weeks at 2-8° C.",0.528
same,"mean OD, fresh",[1]; buffer standard 500 ng/ml,0.419
same,"mean OD, 4-week old stds","[1]; buffer standard 1000 ng/ml, 4 weeks at 2-8° C.",0.317
same,"mean OD, fresh",[1]; buffer standard 1000 ng/ml,0.235
same,decrease in immunoreactivity,[1]; 4 weeks at 2-8 C.,resulted in a 30-40% decrease in
same,decrease in immunoreactivity,"[1]; 4 weeks at 2-8° C., vs fresh standards",30-40%
same,quantitative value of CLF prepared in methanol (100%) relative to CLF prepared in aqueous ethanol (higher by),"[2]; EtOH:H2O:NaOH (50%) 500:1000:30, both immunoassay and HPLC methodologies",approximately 40%
same,tautomerization of CLF,[2]; isomeric form of SS CLF-EtOH not detected in standard samples in human plasma,reversible and depends on the pH of the medium; also recorded: reversible and is dependent on the pH of the medium
